Data published in patent US20140364431A1, “Quinoline and cinnoline derivatives and their applications” (Shenyang Pharmaceutical University, priority 2011, published 2014).
≈ marks a conversion by molar mass, not a printed value. Where a name gives a salt, the structure may show the parent alone. Read-outs that look alike come from different tables or passages of the source.

Key:
[1] = tested on: SMMC-7721 (hepatoma cell); experiment: In vitro anti-tumor cellular activity (MTT), SMMC-7721; type: cell-based, human; details: Homo sapiens, read-out: SMMC-7721 IC50
[2] = tested on: HT-29 (colon cancer cell); experiment: In vitro anti-tumor cellular activity (MTT), HT-29; type: cell-based, human; details: Homo sapiens, read-out: HT-29 IC50
[3] = tested on: MKN-45 (human gastric carcinoma cell); experiment: In vitro anti-tumor cellular activity (MTT), MKN-45; type: cell-based; details: Homo sapiens, read-out: MKN-45 IC50
[4] = tested on: U87MG (Human malignant glioblastoma cells); experiment: In vitro anti-tumor cellular activity (MTT), U87MG; type: cell-based; details: Homo sapiens, U-87 MG, read-out: U87MG IC50
[5] = tested on: H460 (human lung cancer cell); experiment: In vitro anti-tumor cellular activity (MTT), H460; type: cell-based; details: Homo sapiens, read-out: H460 IC50
[6] = target: T1, c-Met (His-tagged recombinant human Met (Amino acids 974-ends)) (Homo sapiens, UniProt P08581); experiment: c-Met kinase assay (ELISA); type: biochemical; details: 50 pM c-Met, 5 μM ATP, 20 min
T1 construct: His-tagged recombinant human Met (Amino acids 974-ends); His; host or cells: baculovirus expression
T1 sequence (P08581 974-1390 limits assumed): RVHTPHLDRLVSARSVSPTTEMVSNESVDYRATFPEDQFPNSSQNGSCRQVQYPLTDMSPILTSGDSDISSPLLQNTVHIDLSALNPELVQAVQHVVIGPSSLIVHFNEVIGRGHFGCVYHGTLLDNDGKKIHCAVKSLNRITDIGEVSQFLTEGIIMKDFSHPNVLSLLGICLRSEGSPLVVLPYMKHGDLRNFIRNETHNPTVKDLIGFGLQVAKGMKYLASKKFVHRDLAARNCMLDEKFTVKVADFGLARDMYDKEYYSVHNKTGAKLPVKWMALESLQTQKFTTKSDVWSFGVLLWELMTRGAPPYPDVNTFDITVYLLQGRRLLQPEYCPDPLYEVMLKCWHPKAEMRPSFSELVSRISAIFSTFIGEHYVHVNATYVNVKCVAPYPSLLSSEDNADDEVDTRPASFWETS
Method: c-Met kinase activity was measured with an ELISA reader.
The reaction mixture was removed by washing with 0.2 μg/mL conjugated horseradish peroxidase (HRP) monoclonal antibody specific for phosphotyrosine (PY20) detecting phosphorylation of the substrate polymer. 1M phosphoric acid was added to terminate the color, the chromogenic substrate (TMB) was tested by spectrophotometry at 450 nm.

| Compound | IC50 ([1]; SMMC-7721, 72 h) | IC50 ([2]; HT-29, 72 h) | IC50 ([3]; MKN-45, 72 h) | IC50 ([4]; 72 h) | IC50 ([5]; NCI-H460, 72 h) | IC50 [6] | IC50 ([1]; MTT, 72 hours, SMMC-7721) | IC50 ([2]; MTT, 72 hours, HT-29) | IC50 ([3]; MTT, 72 hours, MKN-45) | IC50 ([4]; MTT, 72 hours, U87MG) | IC50 ([5]; NCI-H460, MTT, 72 hours, H460) |
| --- | --- | --- | --- | --- | --- | --- | --- | --- | --- | --- | --- |
| COc1cc2c(Oc3ccc(NC(=O)c4nn(-c5c(Cl)cccc5Cl)c5ccccc5c4=O)cc3F)ccnc2cc1OCCCN1CCN(C)CC1 [Example 32, N-(3-fluoro-4-((6-methoxy-7-(3-(4-methylpiperazin-1-yl)propoxy)quinolin-4-yl)oxy)phenyl)-1-(2,6-dichlorophenyl)-4-oxo-1,4-dihydrocinnoline-3-carboxamide] | 0.66 µg/mL (≈ 0.871 µM) | 0.77 µg/mL (≈ 1.02 µM) | 1.2 µg/mL (≈ 1.58 µM) | 0.65 µg/mL (≈ 0.858 µM) | 0.7 µg/mL (≈ 0.924 µM) | 132 nM | – | – | – | – | – |
| COc1cc2c(Oc3ccc(NC(=O)c4nn(-c5ccccc5Br)c5ccccc5c4=O)cc3F)ccnc2cc1OCCCN1CCN(C)CC1 [Example 35, N-(3-fluoro-4-((6-methoxy-7-(3-(4-methylpiperazin-1-yl)propoxy)quinolin-4-yl)oxy)phenyl)-1-(2-bromophenyl)-4-oxo-1,4-dihydrocinnoline-3-carboxamide] | 1.5 µg/mL (≈ 1.95 µM) | 0.9 µg/mL (≈ 1.17 µM) | 2.1 µg/mL (≈ 2.74 µM) | 1.3 µg/mL (≈ 1.69 µM) | 2.5 µg/mL (≈ 3.26 µM) | 1430 nM | – | – | – | – | – |
| COc1cc2c(Oc3ccc(NC(=O)c4nn(-c5ccc(F)cc5)c5ccccc5c4=O)cc3F)ccnc2cc1OCCCN1CCOCC1 [Example 36, N-(3-fluoro-4-((6-methoxy-7-(3-(morpholin-4-yl)propoxy)quinolin-4-yl)oxy)phenyl)-1-(4-fluorophenyl)-4-oxo-1,4-dihydrocinnoline-3-carboxamide] | – | – | – | – | – | 966 nM | 0.87 µg/mL (≈ 1.25 µM) | 0.7 µg/mL (≈ 1.01 µM) | 1.3 µg/mL (≈ 1.87 µM) | 1.5 µg/mL (≈ 2.16 µM) | 1.1 µg/mL (≈ 1.59 µM) |
| COc1cc2c(Oc3ccc(NC(=O)c4nn(-c5ccccc5OC(F)(F)F)c5ccccc5c4=O)cc3F)ccnc2cc1OCCCN1CCCCC1 [Example 38, N-(3-fluoro-4-((6-methoxy-7-(3-(piperidin-1-yl)propoxy)quinolin-4-yl)oxy)phenyl)-1-(2-(trifluoromethoxy)phenyl)-4-oxo-1,4-dihydrocinnoline-3-carboxamide] | – | – | – | – | – | 1450 nM | 0.98 µg/mL (≈ 1.29 µM) | 1.8 µg/mL (≈ 2.38 µM) | 2.1 µg/mL (≈ 2.77 µM) | 1.1 µg/mL (≈ 1.45 µM) | 1.6 µg/mL (≈ 2.11 µM) |
| COc1cc2c(Oc3ccc(NC(=O)c4nn(-c5ccc(Br)cc5)c5ccccc5c4=O)cc3F)ccnc2cc1OCCCN1CCOCC1 [Example 39, N-(3-fluoro-4-((6-methoxy-7-(3-(morpholin-4-yl)propoxy)quinolin-4-yl)oxy)phenyl)-1-(4-bromophenyl)-4-oxo-1,4-dihydrocinnoline-3-carboxamide] | 2.1 µg/mL (≈ 2.78 µM) | 0.87 µg/mL (≈ 1.15 µM) | 1.4 µg/mL (≈ 1.86 µM) | 1.8 µg/mL (≈ 2.39 µM) | 2.3 µg/mL (≈ 3.05 µM) | 1330 nM | – | – | – | – | – |
| COc1cc2c(Oc3ccc(NC(=O)c4nn(-c5ccc(Cl)cc5Cl)c5ccccc5c4=O)cc3F)ccnc2cc1OCCCN1CCN(C)CC1 [Example 43, N-(3-fluoro-4-((6-methoxy-7-(3-(4-methylpiperazin-1-yl)propoxy)quinolin-4-yl)oxy)phenyl)-1-(2,4-dichlorophenyl)-4-oxo-1,4-dihydrocinnoline-3-carboxamide] | 1.8 µg/mL (≈ 2.38 µM) | 1.2 µg/mL (≈ 1.58 µM) | 0.45 µg/mL (≈ 0.594 µM) | 0.77 µg/mL (≈ 1.02 µM) | 0.53 µg/mL (≈ 0.7 µM) | 924 nM | – | – | – | – | – |
| COc1cc2c(Oc3ccc(NC(=O)c4cn(-c5ccc(F)cc5)c5ccccc5c4=O)cc3F)ccnc2cc1OCCCN1CCN(C)CC1 [Example 46, N-(3-fluoro-4-((6-methoxy-7-(3-(4-methyl-piperazin-1-yl)propoxy)quinolin-4-yl)oxy)phenyl)-4-oxo-1-(4-fluorophenyl)-1,4-dihydroquinoline-3-carboxamide dihydrochloride] | – | – | – | – | – | 1130 nM | 1.3 µg/mL | 1.5 µg/mL | 0.67 µg/mL | 0.72 µg/mL | 0.98 µg/mL |
| COc1cc2c(Oc3ccc(NC(=O)c4cn(-c5ccccc5F)c5ccccc5c4=O)cc3F)ccnc2cc1OCCCN1CCC(C)CC1 [Example 47, N-(3-fluoro-4-((6-methoxy-7-(3-(4-methylpiperidin-1-yl)propoxy)quinolin-4-yl)oxy)phenyl)-1-(2-fluorophenyl)-4-oxo-1,4-dihydroquinoline-3-carboxamide] | – | – | – | – | – | 568 nM | 1.1 µg/mL (≈ 1.56 µM) | 0.57 µg/mL (≈ 0.809 µM) | 0.34 µg/mL (≈ 0.482 µM) | 0.49 µg/mL (≈ 0.695 µM) | 0.54 µg/mL (≈ 0.766 µM) |
| COc1cc2c(Oc3ccc(NC(=O)c4cn(-c5ccccc5C(F)(F)F)c5ccccc5c4=O)cc3F)ccnc2cc1OCCCN1CCOCC1.Cl.Cl [Example 48, N-(3-fluoro-4-((6-methoxy-7-(3-(morpholin-4-yl)propoxy)quinolin-4-yl)oxy)phenyl)-4-oxo-1-(2-(trifluoromethyl)phenyl)-1,4-dihydroquinoline-3-carboxamide dihydrochloride] | – | – | – | – | – | 1350 nM | 0.56 µg/mL | 0.65 µg/mL | 1.1 µg/mL | 0.88 µg/mL | 0.7 µg/mL |
| COc1cc2c(Oc3ccc(NC(=O)c4cn(-c5ccccc5F)c5ccccc5c4=O)cc3F)ccnc2cc1OCCCN1CCCCC1 [Example 50, N-(3-fluoro-4-((6-methoxy-7-(3-(piperidin-1-yl)propoxy)quinolin-4-yl)oxy)phenyl)-1-(2-fluorophenyl)-4-oxo-1,4-dihydroquinoline-3-carboxamide] | – | – | – | – | – | 869 nM | 0.87 µg/mL (≈ 1.26 µM) | 0.38 µg/mL (≈ 0.55 µM) | 0.45 µg/mL (≈ 0.651 µM) | 0.35 µg/mL (≈ 0.507 µM) | 0.58 µg/mL (≈ 0.84 µM) |
| COc1cc2c(Oc3ccc(NC(=O)c4cn(-c5ccccc5F)c5ccccc5c4=O)cc3F)ccnc2cc1OCCCN1CCCC1 [Example 51, N-(3-fluoro-4-((6-methoxy-7-(3-(pyrrolidin-1-yl)propoxy)quinolin-4-yl)oxy)phenyl)-1-(2-fluorophenyl)-4-oxo-1,4-dihydroquinoline-3-carboxamide] | – | – | – | – | – | 296 nM | 0.53 µg/mL (≈ 0.783 µM) | 0.41 µg/mL (≈ 0.606 µM) | 0.24 µg/mL (≈ 0.355 µM) | 0.28 µg/mL (≈ 0.414 µM) | 0.58 µg/mL (≈ 0.857 µM) |
| COc1cc2c(Oc3ccc(NC(=O)c4cn(-c5ccccc5F)c5ccccc5c4=O)cc3F)ccnc2cc1OCCCN1CCN(C)CC1 [Example 52, N-(3-fluoro-4-((6-methoxy-7-(3-(4-methylpiperazin-1-yl)propoxy)quinolin-4-yl)oxy)phenyl)-1-(2-fluorophenyl)-4-oxo-1,4-dihydroquinoline-3-carboxamide] | – | – | – | – | – | 2270 nM | 1.8 µg/mL (≈ 2.55 µM) | 1.1 µg/mL (≈ 1.56 µM) | 0.67 µg/mL (≈ 0.949 µM) | 0.87 µg/mL (≈ 1.23 µM) | 1.4 µg/mL (≈ 1.98 µM) |
| COc1cc2c(Oc3ccc(NC(=O)c4cn(-c5ccccc5Cl)c5ccccc5c4=O)cc3F)ccnc2cc1OCCCN1CCCCC1 [Example 53, N-(3-fluoro-4-((6-methoxy-7-(3-(piperidin-1-yl)propoxy)quinolin-4-yl)oxy)phenyl)-1-(2-chlorophenyl)-4-oxo-1,4-dihydroquinoline-3-carboxamide] | – | – | – | – | – | 707 nM | 0.29 µg/mL (≈ 0.41 µM) | 0.93 µg/mL (≈ 1.32 µM) | 0.47 µg/mL (≈ 0.665 µM) | 0.21 µg/mL (≈ 0.297 µM) | 0.79 µg/mL (≈ 1.12 µM) |
| COc1cc2c(Oc3ccc(NC(=O)c4cn(-c5ccccc5Cl)c5ccccc5c4=O)cc3F)ccnc2cc1OCCCN1CCC(C)CC1 [Example 54, N-(3-fluoro-4-((6-methoxy-7-(3-(4-methylpiperidin-1-yl)propoxy)quinolin-4-yl)oxy)phenyl)-1-(2-chlorophenyl)-4-oxo-1,4-dihydroquinoline-3-carboxamide] | – | – | – | – | – | 971 nM | 0.52 µg/mL (≈ 0.721 µM) | 0.63 µg/mL (≈ 0.874 µM) | 0.49 µg/mL (≈ 0.679 µM) | 0.14 µg/mL (≈ 0.194 µM) | 0.63 µg/mL (≈ 0.874 µM) |
| COc1cc2c(Oc3ccc(NC(=O)c4cn(-c5ccccc5Cl)c5ccccc5c4=O)cc3F)ccnc2cc1OCCCN1CCCC1 [Example 55, N-(3-fluoro-4-((6-methoxy-7-(3-(pyrrolidin-1-yl)propoxy)quinolin-4-yl)oxy)phenyl)-1-(2-chlorophenyl)-4-oxo-1,4-dihydroquinoline-3-carboxamide] | 0.53 µg/mL (≈ 0.765 µM) | 0.37 µg/mL (≈ 0.534 µM) | 0.29 µg/mL (≈ 0.418 µM) | 0.18 µg/mL (≈ 0.26 µM) | 0.74 µg/mL (≈ 1.07 µM) | 1300 nM | – | – | – | – | – |
